Measurements published in PMC3909101, “Chemical Rescue and Inhibition Studies to Determine the Role of Arg301 in Phosphite Dehydrogenase” (PLoS ONE, 2014).
“And” between values parts separate entries of the source, which are not always exact repeats. Identical values can stand only once. “Also recorded” adds a separate entry of the source. Like-named read-outs stand apart in the source and are kept apart here.

What was measured:
[1] = molecular target: T1, 17X-PTDH-R301A (Stutzerimonas stutzeri (Pseudomonas stutzeri), UniProt O69054, D13E/E130K/I150F/M26I/Q132R/Q137R/R301A/V71I, form not given); format: biochemical, Pseudomonas stutzeri WM88; conditions: for Rescue of activity of the R301A mutant: exogenous reagent, unsuccessful ones tested at 20–100 mM depending on solubility; for k rescue/ K m, phosphite: R301A with saturating rescue reagent; for EC50: pH 7.25, 25°C, read-out: K R (concentration of rescue reagent at which half-maximal rate was observed); for K m, phosphite (apparent): rescue agent and NAD+ saturating (>10 K R)
T1 sequence (O69054 1-329 D13E/E130K/I150F/M26I/Q132R/Q137R/R301A/V71I): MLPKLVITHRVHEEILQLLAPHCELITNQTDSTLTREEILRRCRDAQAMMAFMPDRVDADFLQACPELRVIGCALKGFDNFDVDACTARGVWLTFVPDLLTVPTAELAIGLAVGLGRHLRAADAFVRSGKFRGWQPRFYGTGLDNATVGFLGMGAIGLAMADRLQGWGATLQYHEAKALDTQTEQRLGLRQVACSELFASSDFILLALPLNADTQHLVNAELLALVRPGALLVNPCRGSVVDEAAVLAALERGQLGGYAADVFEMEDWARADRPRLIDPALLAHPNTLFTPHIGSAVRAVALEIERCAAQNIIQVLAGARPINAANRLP

[2] = molecular target: H292A mutant of wt-PTDH (Stutzerimonas stutzeri, UniProt O69054, H292A); format: biochemical, Pseudomonas stutzeri WM88; conditions: 10–100 mM reagent
[3] = molecular target: H292G mutant of wt-PTDH (Stutzerimonas stutzeri, UniProt O69054, H292G); format: biochemical, Pseudomonas stutzeri WM88; conditions: 10–100 mM reagent
[4] = set-up: method as in earlier work; conditions: cited from earlier work
[5] = molecular target: T1, 17X-PTDH-R301A; format: biochemical, Pseudomonas stutzeri WM88; conditions: saturating rescue reagent (>20 K R), deuterated vs protiated phosphite, pH 7.25, 25°C
[6] = molecular target: 17X-PTDH; test: Sulfite inhibition of 17X-PTDH; format: biochemical, Pseudomonas stutzeri WM88; conditions: competitive vs phosphite, 4 mM NAD+, pH 7.25, read-out: K is
Experimental: Reactions were performed in 100 mM MOPS (pH 7.25) at saturating concentrations of 4 mM NAD^+. Sodium sulfite was adjusted to the desired concentration by serial dilution from a 0.5 M stock solution. Sulfite concentration was adjusted to 0, 50, 100, 150, 200 or 300 µM for R301A or 0, 0.5, 1, 5, 10 or 20 µM for 17X-PTDH. An experiment was also performed with 17X-PTDH-R301A and saturating concentrations of 300 mM aminoguanidine, with sulfite concentrations of 0, 100, 200, 300, 400 or 500 µM. The reaction was initiated by addition of PTDH (0.1 µM final concentration, 5 µM for R301A). At each concentration of inhibitor, phosphite concentration was varied. The data was analyzed in GraFit 7.0 [28] using the equation for competitive inhibition (Equation 3) to fit all of the data, where I is the inhibitor concentration and K is the dissociation constant for a competitive inhibitor [29]. [drawing 5] (3)

[7] = molecular target: T1, 17X-PTDH-R301A; format: biochemical, Pseudomonas stutzeri WM88; conditions: pH 7.25, read-out: K is
[8] = molecular target: 17X-PTDH; test: Phosphite dissociation constant for 17X-PTDH by the method of Klinman and Matthews; format: biochemical, Pseudomonas stutzeri WM88; conditions: calculated from ^D(V/K), ^DV and K m,Phosphite
[9] = tested on: R301A; test: Phosphite Kd and Km for R301A; format: biochemical, Pseudomonas stutzeri WM88
[10] = molecular target: T1, 17X-PTDH-R301A; format: biochemical, Pseudomonas stutzeri WM88
[11] = Expected proportion of aminoguanidine in unprotonated and protonated states at various pH values; format: physicochemical
[12] = wt enzyme, pH 7.25; ref (1) Relyea et al., 2005; cited from earlier work
[13] = wt enzyme, pH 7.25, cited from earlier work
[14] = R301A, k cat,apparent at saturating rescue reagent, 100 mM MOPS pH 7.25, 25°C, 4 mM NAD+
[15] = 0–2.0 mM aminoguanidine, 1 M phosphite, 4 mM NAD+, first experiment
[16] = repeat with a different batch of enzyme and reagents

Molecule: CN [methylamine]
- Rescue of activity of the R301A mutant [1]: not observed
- Rescue of activity of H292A mutant [2]: no activity
- Rescue of activity of H292G mutant [3]: no activity

Molecule: N=C(N)NC(N)=O [N-guanylurea]
- [drawing 6] (Brønsted plot ordinate; uses K R corrected for free base concentration at pH 7.25) ([1]; pH 7.25): −2.9 (0.2)
- k rescue ([1]; pH 7.25): 0.42 (0.07) s^−1
- pK a (conjugate acid of rescue reagent) [4]: 3.9

Molecule: CC(=N)N [acetamidine]
- k rescue/ K m, phosphite ([1]; pH 7.25): 6.7 (1.1) M^−1 s^−1
- k rescue [1, 14]: 0.86 (0.08) s^−1
- [drawing 6] (Brønsted plot ordinate; uses K R corrected for free base concentration at pH 7.25) ([1]; R301A, pH 7.25): 6.3 (0.1)
- EC50 ([1]; R301A): 63 mM
- K m, phosphite (apparent) ([1]; R301A, pH 7.25): 130 (20) mM
- Rescue of activity of the R301A mutant [1]: markedly improved
- ^D k cat [5]: 1.5 (0.1)
- ^D k cat/K m [5]: 1.8 (0.6)
- pK a (conjugate acid of rescue reagent) [4]: 12.5

Molecule: O=S(O)O [sulfite]
- Ki [6]: 0.00031 mM
- Ki ([7]; R301A + saturating 300 mM aminoguanidine): 0.078 mM
- Ki ([7]; R301A, competitive vs phosphite, 4 mM NAD+): 0.13 mM

Molecule: c1c[nH]cn1 [imidazole]
- Rescue of activity of H292A mutant [2]: no activity; also recorded: failed to result in any activity
- Rescue of activity of H292G mutant [3]: no activity; also recorded: failed to result in any activity

Molecule: NC(N)=S [thiourea]
- Rescue of activity of the R301A mutant [1]: not observed

Molecule: CCCCN [butylamine, n-butylamine]
- Rescue of activity of the R301A mutant [1]: not observed

Molecule: phosphite
- Kd [8]: 0.023 ± 0.006 mM
- K m of phosphite ([9]; R301A, pH 8.0, no rescue agent): 300 ± 35 mM
- Kd ([9]; calculated from ^D(V/K), ^DV and K m,Phosphite): 13 ± 2 mM

Molecule: NC(N)=O [urea]
- Rescue of activity of the R301A mutant [1]: not observed

Molecule: N=C(N)N [guanidine]
- k rescue/ K m, phosphite ([1]; pH 7.25): 41 (4) M^−1 s^−1
- k rescue [1, 14]: 1.2 (0.1) s^−1
- [drawing 6] (Brønsted plot ordinate; uses K R corrected for free base concentration at pH 7.25) ([1]; R301A, pH 7.25): 8.1 (0.1)
- EC50 ([1]; R301A): 18 mM
- K m, phosphite (apparent) ([1]; R301A, pH 7.25): 30 (3) mM
- Rescue of activity of the R301A mutant [1]: markedly improved
- ^D k cat [5]: 1.8 (0.1)
- ^D k cat/K m [5]: 2.3 (0.1)
- pK a (conjugate acid of rescue reagent) [4]: 13.6

Molecule: N=C(N)NN [aminoguanidine]
- k rescue/ K m, phosphite ([1]; pH 7.25): 180 (10) M^−1 s^−1
- k rescue [1, 14]: 1.4 (0.1) s^−1
- [drawing 6] (Brønsted plot ordinate; uses K R corrected for free base concentration at pH 7.25) ([1]; R301A, pH 7.25): 5.3 (0.1)
- EC50 ([1]; R301A): 32 mM
- K m, phosphite (apparent) ([1]; R301A, pH 7.25): 7.4 (0.5) mM
- Activity with saturating rescue agent relative to wild-type activity ([1]; R301A, saturating substrate and rescue agent): about 40%
- Rescue of activity of the R301A mutant [1]: markedly improved
- ^D k cat [5]: 2.1 (0.1)
- ^D k cat/K m [5]: 3.1 (0.3)
- Ratio of slopes of k cat,apparent vs rescue agent concentration, pH 7.5 : pH 7.0 [10, 15]: 1.2±0.1
- Ratio of slopes of k cat,apparent vs rescue agent concentration, pH 8.0 : pH 7.0 [10, 15]: 3.7±0.3
- Ratio of slopes, pH 7.5 : pH 7.0 [10, 16]: 1.6±0.1
- Ratio of slopes, pH 8.0 : pH 7.0 [10, 16]: 3.0±0.1
- Ratio of concentrations of reagent (pH 7.5 : pH 7), protonated [11]: 1.0
- Ratio of concentrations of reagent (pH 7.5 : pH 7), unprotonated [11]: 3.2
- Ratio of concentrations of reagent (pH 8 : pH 7), protonated [11]: 1.0
- Ratio of concentrations of reagent (pH 8 : pH 7), unprotonated [11]: 10.0
- Protonated (RNH3^+) proportion ([11]; pH 7.0): 99.99%
- Unprotonated (RNH2) proportion ([11]; pH 7.0): 0.01%
- Protonated (RNH3^+) proportion ([11]; pH 7.5): 99.97%
- Unprotonated (RNH2) proportion ([11]; pH 7.5): 0.03%
- Protonated (RNH3^+) proportion ([11]; pH 8.0): 99.90%
- Unprotonated (RNH2) proportion ([11]; pH 8.0): 0.10%
- pK a (conjugate acid of rescue reagent) [4]: 11.0

Molecule: CCNC(=N)N [ethylguanidine]
- k rescue [1, 14]: 0.52 (0.13) s^−1
- [drawing 6] (Brønsted plot ordinate; uses K R corrected for free base concentration at pH 7.25) ([1]; R301A, pH 7.25): 6.1 (0.2)
- Rescue of activity of the R301A mutant [1]: markedly improved
- pK a (conjugate acid of rescue reagent) [4]: 13.3

Molecule: NC(=O)NO [hydroxyurea]
- Rescue of activity of the R301A mutant [1]: not observed

Molecule: CN=C(N)N [methylguanidine]
- k rescue/ K m, phosphite ([1]; pH 7.25): 5.2 (1.1) M^−1 s^−1
- k rescue [1, 14]: 0.68 (0.04) s^−1
- [drawing 6] (Brønsted plot ordinate; uses K R corrected for free base concentration at pH 7.25) ([1]; R301A, pH 7.25): 7.2 (0.1)
- EC50 ([1]; R301A): 55 mM
- K m, phosphite (apparent) ([1]; R301A, pH 7.25): 130 (30) mM
- Rescue of activity of the R301A mutant [1]: markedly improved
- ^D k cat [5]: 1.4 (0.1)
- ^D k cat/K m [5]: 1.6 (0.5)
- pK a (conjugate acid of rescue reagent) [4]: 13.4

Molecule: c1nc[nH]n1 [1,2,4-triazole]
- Rescue of activity of H292A mutant [2]: no activity; also recorded: failed to result in any activity
- Rescue of activity of H292G mutant [3]: no activity; also recorded: failed to result in any activity

Molecule: CCN [ethylamine]
- Rescue of activity of the R301A mutant [1]: not observed

B1: wt enzyme: wild-type phosphite dehydrogenase from Pseudomonas stutzeri WM88 (protein, UniProt O69054 1-336, looked up)
Phosphonate dehydrogenase: MLPKLVITHRVHDEILQLLAPHCELMTNQTDSTLTREEILRRCRDAQAMMAFMPDRVDADFLQACPELRVVGCALKGFDNFDVDACTARGVWLTFVPDLLTVPTAELAIGLAVGLGRHLRAADAFVRSGEFQGWQPQFYGTGLDNATVGILGMGAIGLAMADRLQGWGATLQYHEAKALDTQTEQRLGLRQVACSELFASSDFILLALPLNADTQHLVNAELLALVRPGALLVNPCRGSVVDEAAVLAALERGQLGGYAADVFEMEDWARADRPRLIDPALLAHPNTLFTPHIGSAVRAVRLEIERCAAQNIIQVLAGARPINAANRLPKAEPAAC
- substrate KIE on kcat [12]: 2.1
- solvent isotope effect (SIE) on k cat [13]: 1.55 and 1.55±0.07
- observed combined SIE and substrate KIE on kcat ([13]; ref (1) Relyea et al., 2005): 2.48
